According to patent US10266560B2, “Bile acid analogs as FXR/TGR5 agonists and methods of use thereof” (Enanta Pharmaceuticals, Inc., priority 2014, dated 2019):
Read-outs that look alike come from different tables or passages of the source.

Molecular target: Human FXR (NR1H4) (Homo sapiens (Human), UniProt Q96RI1)
Experiment: Human FXR (NR1H4) Assay (Gal4 promoter driven luciferase reporter transactivation in CHO cells)
Format: cell-based
Text: Assays Human FXR (NR1H4) Assay
Determination of a ligand mediated Gal4 promoter driven transactivation to quantify ligand binding mediated activation of FXR. FXR Reporter Assay kit purchased from Indigo Bioscience (Catalogue number: IB00601) to determine the potency and efficacy of compound developed by Enanta that can induce FXR activation. The principle application of this reporter assay system is to quantify functional activity of human FXR. The assay utilizes non-human mammalian cells, CHO (Chinese hamster ovary) cells engineered to express human NR1H4 protein (referred to as FXR). Reporter cells also incorporate the cDNA encoding beetle luciferase which catalyzes the substrates and yields photon emission. Luminescence intensity of the reaction is quantified using a plate-reading luminometer, Envision. Reporter Cells include the luciferase reporter gene functionally linked to an FXR responsive promoter. Thus, quantifying changes in luciferase expression in the treated reporter cells provides a sensitive surrogate measure of the changes in FXR activity. […] The assay is according to the manufacturer's instructions. In brief, the assay was performed in white, 96 well plates using final volume of 200 ul containing cells with different doses of compounds. Retrieve Reporter Cells from −80° C. storage. Perform a rapid thaw of the frozen cells by transferring a 10 ml volume of 37° C. cell recovery medium into the tube of frozen cells. Recap the tube of Reporter Cells and immediately place it in a 37° C. water bath for 5-10 minutes. Retrieve the tube of Reporter Cell Suspension from the water bath. Sanitize the outside surface of the tube with a 70% alcohol swab, and then transfer it into the cell culture hood. Dispense 100 μl of cell suspension into each well of the 96-well Assay Plate. Transfer the plate into 37° C. incubator, allowing the cells adherent to the bottom of the well. Dilute compounds in Dilution Plate (DP), and administrate to cells at Assay Plate (AP). DMSO content of the samples was kept at 0.2%. Cells were incubated for additional 22 hours before luciferase activities were measured. Thirty minutes before intending to quantify FXR activity, remove Detection Substrate and Detection Buffer from the refrigerator and place them in a low-light area so that they may equilibrate to room temperature. Remove the plate's lid and discard all media contents by ejecting it into an appropriate waste container. Gently tap the inverted plate onto a clean absorbent paper towel to remove residual droplets. Cells will remain tightly adhered to well bottoms. Add 100 μl of luciferase detection reagent to each well of the assay plate. Allow the assay plate to rest at room temperature for at least 5 minutes following the addition of LDR. Set the instrument (Envision) to perform a single 5 second “plate shake” prior to reading the first assay well. Read time may be 0.5 second (500 mSec) per well.

[1] = FXR agonistic potency range; CHO reporter cells expressing human NR1H4, 22 hours incubation; read-out: EC50
[2] = efficacy normalized to chenodeoxycholic acid (CDCA) set as 100%

Sequence of Human FXR (NR1H4) (Q96RI1 whole entry, the tested form may be a part): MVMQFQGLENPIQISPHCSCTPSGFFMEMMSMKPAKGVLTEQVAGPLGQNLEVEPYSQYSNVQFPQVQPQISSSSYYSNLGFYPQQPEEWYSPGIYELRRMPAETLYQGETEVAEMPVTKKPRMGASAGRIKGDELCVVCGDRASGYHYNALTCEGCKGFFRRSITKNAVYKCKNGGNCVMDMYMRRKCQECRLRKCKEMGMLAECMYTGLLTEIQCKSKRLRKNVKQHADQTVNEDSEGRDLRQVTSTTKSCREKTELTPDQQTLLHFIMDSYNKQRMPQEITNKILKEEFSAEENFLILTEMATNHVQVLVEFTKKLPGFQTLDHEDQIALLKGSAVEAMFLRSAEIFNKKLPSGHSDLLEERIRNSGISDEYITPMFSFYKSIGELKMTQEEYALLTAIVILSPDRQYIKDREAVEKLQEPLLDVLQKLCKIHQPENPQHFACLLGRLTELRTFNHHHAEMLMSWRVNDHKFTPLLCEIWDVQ

SMILES	Emax (CHO, read-out: Efficacy (%)) [%]	EC50 [1] [nM]	Emax (CHO; read-out: Efficacy (%)) [%]	EC50 (read-out: EC50) [nM]	also measured
CC[C@@H]1C2C[C@H](O)CCC2(C)[C@H]2CCC3(C)C([C@H](C)CCC(=O)NS(=O)(=O)c4ccc(C(F)(F)F)cc4)CC[C@H]3[C@@H]2[C@@H]1O (stereo partly shown) [Example 475]	590	< 100			
C=CCS(=O)(=O)NC(=O)CCC(C)C1CCC2C3C(O)C(CC)C4CC(O)CCC4(C)C3CCC12C (stereo not shown) [Example 9]		100 to 1000			Efficacy (%) [2]: 248%
CC[C@@H]1C2C[C@H](O)CCC2(C)[C@H]2CCC3(C)C([C@H](C)CCC(=O)NS(=O)(=O)c4ccc5ccccc5c4)CC[C@H]3[C@@H]2[C@@H]1O (stereo partly shown) [Example 472]	580	< 100			
CCC1C(O)C2C3CCC(C(C)CCC(=O)NS(=O)(=O)F)C3(C)CCC2C2(C)CCC(O)CC12 (stereo not shown) [Example 25]		1000 to 10000			Efficacy (%) [2]: 347%
CC[C@@H]1C2C[C@H](O)CCC2(C)[C@H]2CCC3(C)C([C@H](C)CCC(=O)NS(=O)(=O)c4ccc5c(c4)OCO5)CC[C@H]3[C@@H]2[C@@H]1O (stereo partly shown) [Example 481]	359	< 100			
CC[C@@H]1C2C[C@H](O)CCC2(C)[C@H]2CCC3(C)C([C@H](C)CCC(=O)NS(=O)(=O)c4cccc([N+](=O)[O-])c4)CC[C@H]3[C@@H]2[C@@H]1O (stereo partly shown) [Example 452]	292				EC50: 1000 to 10000 nM
CC[C@@H]1C2C[C@H](O)CCC2(C)[C@H]2CCC3(C)C([C@H](C)CCC(=O)NS(=O)(=O)c4cnccn4)CC[C@H]3[C@@H]2[C@@H]1O (stereo partly shown) [Example 469]			447	1000 to 10000	
CC[C@H]1[C@@H](O)[C@@H]2[C@H](CC[C@]3(C)[C@@H]([C@H](C)C[C@H](C)C(=O)NS(=O)(=O)c4ccc(C(C)(C)C)cc4)CC[C@@H]23)[C@@]2(C)CC[C@@H](O)C[C@@H]12 [Example 488]			132	100 to 1000	
CC[C@H]1[C@@H](O)[C@@H]2[C@H](CC[C@]3(C)[C@@H]([C@H](C)CCCC(=O)NS(=O)(=O)C4(C)CC4)CC[C@@H]23)[C@@]2(C)CC[C@@H](O)C[C@@H]12 [Example 492]			226	100 to 1000	
CC[C@@H]1C2C[C@H](O)CCC2(C)[C@H]2CCC3(C)C([C@H](C)CCC(=O)NS(=O)(=O)C4CCCC4)CC[C@H]3[C@@H]2[C@@H]1O (stereo partly shown) [Example 482]	342	< 100			
CC[C@@H]1C2C[C@H](O)CCC2(C)[C@H]2CCC3(C)C([C@H](C)CCC(=O)NS(=O)(=O)c4cccc(Cl)c4)CC[C@H]3[C@@H]2[C@@H]1O (stereo partly shown) [Example 479]	572	< 100			
CC[C@@H]1C2C[C@H](O)CCC2(C)[C@H]2CCC3(C)C([C@H](C)CCC(=O)NS(=O)(=O)c4ccc([N+](=O)[O-])cc4)CC[C@H]3[C@@H]2[C@@H]1O (stereo partly shown) [Example 454]			353	100 to 1000	
CC[C@H]1[C@@H](O)[C@@H]2[C@H](CC[C@]3(C)[C@@H]([C@H](C)CCC(=O)N(C)S(=O)(=O)c4ccccc4)CC[C@@H]23)[C@@]2(C)CC[C@@H](O)C[C@@H]12 [Example 489]			231	1000 to 10000	
CC[C@@H]1C2C[C@H](O)CCC2(C)[C@H]2CCC3(C)C([C@H](C)CCC(=O)NS(=O)(=O)c4cc(F)cc(F)c4)CC[C@H]3[C@@H]2[C@@H]1O (stereo partly shown) [Example 464]			293	100 to 1000	
CCC1C(O)C2C3CCC(C(C)CCC(=O)NS(=O)(=O)c4ccccc4F)C3(C)CCC2C2(C)CCC(O)CC12 (stereo not shown) [Example 22]		100 to 1000			Efficacy (%) [2]: 259%
CCC1C(O)C2C3CCC(C(C)CCC(=O)NS(=O)(=O)N4CCOCC4)C3(C)CCC2C2(C)CCC(O)CC12 (stereo not shown) [Example 16]		1000 to 10000			Efficacy (%) [2]: 219%
CCC1C(O)C2C3CCC(C(C)CCC(=O)NS(=O)(=O)c4ccccc4N)C3(C)CCC2C2(C)CCC(O)CC12 (stereo not shown) [Example 19]		100 to 1000			Efficacy (%) [2]: 176%
CC[C@@H]1C2C[C@H](O)CCC2(C)[C@H]2CCC3(C)C([C@H](C)CCC(=O)NS(=O)(=O)c4cccs4)CC[C@H]3[C@@H]2[C@@H]1O (stereo partly shown) [Example 467]			315	100 to 1000	
CC[C@H]1[C@@H](O)[C@@H]2[C@H](CC[C@]3(C)[C@@H]([C@H](C)C[C@@H](C)C(=O)NS(=O)(=O)c4ccc(OC(F)(F)F)cc4)CC[C@@H]23)[C@@]2(C)CC[C@@H](O)C[C@@H]12 [Example 487]	287	< 100			
CC[C@@H]1C2C[C@H](O)CCC2(C)[C@H]2CCC3(C)C([C@H](C)CCC(=O)NS(=O)(=O)c4ccc(F)cc4)CC[C@H]3[C@@H]2[C@@H]1O (stereo partly shown) [Example 453]			240	100 to 1000	
CCC1C(O)C2C3CCC(C(C)CCC(=O)NS(=O)(=O)Cc4ccccc4)C3(C)CCC2C2(C)CCC(O)CC12 (stereo not shown) [Example 7]		1000 to 10000			Efficacy (%) [2]: 178%
CC[C@@H]1C2C[C@H](O)CCC2(C)[C@H]2CCC3(C)C([C@H](C)CCC(=O)NS(=O)(=O)C4CCCCC4)CC[C@H]3[C@@H]2[C@@H]1O (stereo partly shown) [Example 468]	480	< 100			
CC[C@@H]1C2C[C@H](O)CCC2(C)[C@H]2CCC3(C)C([C@H](C)CCC(=O)NS(=O)(=O)c4ccc(OC)cc4)CC[C@H]3[C@@H]2[C@@H]1O (stereo partly shown) [Example 455]	417	< 100			
